This passage reports IC50 results from US9975888B2, “Aryl linked imidazole and triazole derivatives and methods of use thereof for improving the pharmacokinetics of a drug” (MERCK SHARP & DOHME CORP., priority 2013, dated 2018).

The IC50 is the concentration needed to halve the response being measured.

Common to all, as to format: biochemical
Test [1] concerns the target T1, CYP1A2 (Homo sapiens, UniProt P05177).
T1 construct: 0.1 mg/mL protein human liver microsomes (BD Gentest); tissue BD Gentest; host or cells: human liver microsomes
T1 sequence (P05177 1-516): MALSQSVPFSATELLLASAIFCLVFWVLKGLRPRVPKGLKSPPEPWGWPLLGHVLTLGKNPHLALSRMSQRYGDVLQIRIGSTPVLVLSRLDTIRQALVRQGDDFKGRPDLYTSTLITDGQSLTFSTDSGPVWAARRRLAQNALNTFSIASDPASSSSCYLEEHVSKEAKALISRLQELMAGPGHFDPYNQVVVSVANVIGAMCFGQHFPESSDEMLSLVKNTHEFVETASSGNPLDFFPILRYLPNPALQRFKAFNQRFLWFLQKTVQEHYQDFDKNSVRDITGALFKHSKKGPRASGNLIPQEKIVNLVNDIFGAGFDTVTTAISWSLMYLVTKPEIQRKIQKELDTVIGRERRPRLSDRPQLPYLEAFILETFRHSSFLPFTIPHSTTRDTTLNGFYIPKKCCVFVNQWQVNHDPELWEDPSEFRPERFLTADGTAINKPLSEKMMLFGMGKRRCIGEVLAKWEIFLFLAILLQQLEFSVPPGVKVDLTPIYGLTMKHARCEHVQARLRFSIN
Kind of test: Cocktail assay for CYPs, phenacetin O-deethylation (CYP1A2), human liver microsomes. The conditions noted are these: 10 μM phenacetin, 0.1 mg/mL human liver microsomes, 10 min at 37° C.; read-out: CYP IC50 (nM) 1A2. The procedure:
(§1) Determination of IC50 in a Cocktail Assay for CYPs 1A2, 2C9, 2C19, 2D6 and 3A4:
(§2) This assay was performed in a standard 96-well plate design. IC50 values were calculated from the percent inhibition observed for each test compound at 6 concentrations (for example, 0.0032, 0.016, 0.08, 0.4, 2 and 10 μM). The incubation substrate mix contains 10 μM phenacetin (1A2), 5 μM diclofenac (2C9), 30 μM mephenytoin (2C19), 5 μM dextromethorphan (2D6) and 2 μM midazolam (3A4), 0.1 mg/mL protein human liver microsomes (BD Gentest), 1 mM NAPDH, 3.3 mM MgCl2 and 100 mM potassium phosphate buffer (pH 7.4). The production of the metabolite of each probe substrate was determined after incubation for 10 min at 37° C. Quantitation of the metabolite peak area ratio against an internal standard (tolbutamide) was determined by LC/MS/MS analysis following acetonitrile treatment of the incubations.
(§3) Samples were analyzed in the MRM mode with a SCIEX API-4000 mass spectrometer (Applied Biosystems, Foster City, Calif.), with a Shimadzu LC-20 AD pump (Shimadzu corporation, Kyoto, JP) and a CTC PAL autosampler (Agilent Technologies, Switzerland). A Phenomenex, Luna, […], 100 A, 2.00×30 mm HPLC column was used for the separation. The mobile phases were: (A) 0.1% formic acid in water and (B) 0.1% formic acid in acetonitrile. The binary gradient was as follows.
(§4) The peak area ratio of the analyte to the internal standard was used to quantify the metabolite. The values of peak area ratios in the presence of test compound were compared to those of maximum or minimum controls and were expressed as % inhibition by interpolating between the maximum and minimum peak area ratios. Incubations with no inhibitor were defined as the maxima. The following equation was used to calculate the % inhibition: [1−[(X−Low control)/(High control−Low control)]]*100 For the IC50 calculation, SigmaPlot was used to plot the mean % inhibition versus the test compound concentrations and for non-linear regression analysis of the data. Depending on the range of data points defining the inhibition curve, the data may have been fit to the 4-parameter logistic equation.

Test [2] addresses T2, CYP2C9 (Homo sapiens, UniProt P11712).
T2 construct: 0.1 mg/mL protein human liver microsomes (BD Gentest); tissue BD Gentest; host or cells: human liver microsomes
The test can be described thus: Cocktail assay for CYPs, diclofenac 4′-hydroxylation (CYP2C9), human liver microsomes. As to conditions: 5 μM diclofenac, 0.1 mg/mL human liver microsomes, 10 min at 37° C.; read-out: CYP IC50 (nM) 2C9. The procedure: as §1
as §2, with “IC50 values were calculated from the percent inhibition observed for each test compound at 6 concentrations (for example, 0.0032, 0.016, 0.08, 0.4, 2 and 10 μM).” left out
as §3, §4
(Liver microsomes are a subcellular fraction often used to study metabolism.)

In test [3] the target is T3, CYP2C19 (Homo sapiens, UniProt P33261).
T3 construct: 0.1 mg/mL protein human liver microsomes (BD Gentest); tissue BD Gentest; host or cells: human liver microsomes
The test can be described thus: Cocktail assay for CYPs, mephenytoin 4′-hydroxylation (CYP2C19), human liver microsomes. As to conditions: 30 μM mephenytoin, 0.1 mg/mL human liver microsomes, 10 min at 37° C.; read-out: CYP IC50 (nM) 2C19. The procedure: as §1
as §2, with “IC50 values were calculated from the percent inhibition observed for each test compound at 6 concentrations (for example, 0.0032, 0.016, 0.08, 0.4, 2 and 10 μM).” left out
as §3, §4

For test [4], the target named is T4, CYP2D6 (Homo sapiens, UniProt P10635).
T4 construct: 0.1 mg/mL protein human liver microsomes (BD Gentest); tissue BD Gentest; host or cells: human liver microsomes
Kind of test: Cocktail assay for CYPs, dextromethorphan O-demethylation (CYP2D6), human liver microsomes. As to conditions: 5 μM dextromethorphan, 0.1 mg/mL human liver microsomes, 10 min at 37° C.; read-out: CYP IC50 (nM) 2D6. The procedure:
as §1, §2, §3, §4

Test [5] addresses T5, CYP3A4 (Homo sapiens, UniProt P08684). Kind of test: Cocktail assay for CYPs, midazolam 1′-hydroxylation (CYP3A4), human liver microsomes. As to conditions: 2 μM midazolam, 0.1 mg/mL human liver microsomes, 10 min at 37° C.; read-out: CYP IC50 (nM) 3A4 (MDZ). Also on record: 0.1 mg/mL protein human liver microsomes (BD Gentest); tissue BD Gentest; host or cells: human liver microsomes. The procedure: as §1, §2, §3, §4
Target sequence in this assay (P08684 whole entry): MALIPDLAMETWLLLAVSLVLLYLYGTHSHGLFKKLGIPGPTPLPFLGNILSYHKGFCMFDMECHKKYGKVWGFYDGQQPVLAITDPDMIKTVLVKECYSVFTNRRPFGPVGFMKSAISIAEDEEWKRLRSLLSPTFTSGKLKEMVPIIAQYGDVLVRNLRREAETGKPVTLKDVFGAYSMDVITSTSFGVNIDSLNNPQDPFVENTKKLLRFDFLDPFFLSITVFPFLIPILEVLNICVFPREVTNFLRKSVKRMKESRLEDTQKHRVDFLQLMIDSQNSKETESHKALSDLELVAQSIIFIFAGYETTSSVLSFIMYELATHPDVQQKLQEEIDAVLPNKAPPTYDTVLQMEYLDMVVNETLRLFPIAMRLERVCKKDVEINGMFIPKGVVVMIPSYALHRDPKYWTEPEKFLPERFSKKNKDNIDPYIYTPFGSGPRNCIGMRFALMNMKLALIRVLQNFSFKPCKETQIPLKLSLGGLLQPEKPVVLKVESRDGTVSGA

Test [6] deals with T5, CYP3A4. Kind of test: IC50 vs CYP3A by inhibition of lopinavir metabolism in human liver microsomes. Also on record: 0.01 mg/mL protein human liver microsomes (BD Gentest); tissue BD Gentest; host or cells: human liver microsomes. The conditions noted are these: 1.5 μM lopinavir, 0.01 mg/mL human liver microsomes, 8 min at 37° C.; read-out: CYP IC50 (nM) 3A4 (LPV). The procedure: Determination of IC50 vs CYP3A by Measurement of Inhibition of Lopinavir Metabolism
This assay was performed in a standard 96-well plate design. IC50 values were calculated from the percent inhibition observed for each test compound at 6 concentrations (for example, 0.098, 0.391, 1.56, 6.25, 25 and 100 nM). The incubation substrate mix contains 1.5 μM lopinavir, 0.01 mg/mL protein human liver microsomes (BD Gentest), 1 mM NAPDH, 3.3 mM MgCl2 and 100 mM potassium phosphate buffer (pH 7.4). The production of the sum of three hydroxylated metabolites (M2: 6-hydroxy lopinavir, M3: 4-hydroxy lopinavir, M4: 4-hydroxy lopinavir (epimer of M3), Kumar et al., 1999) was determined after incubation for 8 min at 37° C. Quantitation of the metabolite peak area ratio against an internal standard (tolbutamide) was determined by LC/MS/MS analysis following acetonitrile treatment of the incubations.
Samples were analyzed in the MRM mode with a SCIEX API-4000 mass spectrometer (Applied Biosystems, Foster City, Calif.), with a Shimadzu LC-20 AD pump (Shimadzu corporation, Kyoto, JP) and a CTC PAL autosampler (Agilent Technologies, Switzerland). A Phenomenex, Luna, 5 μm, 100 A, 2.00×30 mm HPLC column was used for the separation. The mobile phases were: (A) 0.1% formic acid in water and (B) 0.1% formic acid in acetonitrile. The binary gradient was as follows.
The peak area ratio of the analyte to the internal standard was used to quantify the metabolite. The values of peak area ratios in the presence of test compound were compared to those of maximum or minimum controls and were expressed as % inhibition by interpolating between the maximum and minimum peak area ratios. Incubations with no inhibitor were defined as the maxima and with 5 μM ketoconazole were defined as the minima.
The following equation was used to calculate the % inhibition: [1−[(X−Low control)/(High control−Low control)]]*100
For the IC50 calculation, SigmaPlot was used to plot the mean % inhibition versus the test compound concentrations and for non-linear regression analysis of the data. Depending on the range of data points defining the inhibition curve, the data may have been fit to the 4-parameter logistic equation.
Target sequence in this assay (P08684 2-503): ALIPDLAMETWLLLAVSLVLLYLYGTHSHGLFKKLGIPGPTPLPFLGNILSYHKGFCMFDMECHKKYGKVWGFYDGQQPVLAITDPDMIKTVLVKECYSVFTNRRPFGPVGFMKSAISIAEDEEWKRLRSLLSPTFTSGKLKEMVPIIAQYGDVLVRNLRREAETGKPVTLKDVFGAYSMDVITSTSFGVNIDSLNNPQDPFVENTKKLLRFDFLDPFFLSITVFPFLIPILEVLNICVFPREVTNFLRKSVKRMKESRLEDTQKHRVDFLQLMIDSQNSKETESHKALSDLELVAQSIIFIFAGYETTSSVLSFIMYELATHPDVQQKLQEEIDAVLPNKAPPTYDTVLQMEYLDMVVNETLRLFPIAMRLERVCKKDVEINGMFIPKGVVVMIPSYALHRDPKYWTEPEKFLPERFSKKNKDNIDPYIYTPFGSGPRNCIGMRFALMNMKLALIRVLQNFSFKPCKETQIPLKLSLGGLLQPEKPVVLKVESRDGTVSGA

T2 sequence (P11712 whole entry): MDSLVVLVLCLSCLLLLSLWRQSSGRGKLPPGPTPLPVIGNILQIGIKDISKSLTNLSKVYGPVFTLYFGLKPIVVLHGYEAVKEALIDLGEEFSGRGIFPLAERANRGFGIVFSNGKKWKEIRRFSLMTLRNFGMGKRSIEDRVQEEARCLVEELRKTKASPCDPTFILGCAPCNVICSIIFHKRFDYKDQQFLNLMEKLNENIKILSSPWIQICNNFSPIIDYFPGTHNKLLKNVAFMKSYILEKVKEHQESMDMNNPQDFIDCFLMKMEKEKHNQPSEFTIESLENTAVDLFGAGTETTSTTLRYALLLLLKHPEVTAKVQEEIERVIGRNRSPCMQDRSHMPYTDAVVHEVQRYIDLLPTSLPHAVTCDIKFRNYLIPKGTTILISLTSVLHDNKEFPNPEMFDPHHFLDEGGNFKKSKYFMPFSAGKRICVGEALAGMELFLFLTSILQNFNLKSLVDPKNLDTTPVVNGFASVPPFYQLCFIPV
T3 sequence (P33261 whole entry): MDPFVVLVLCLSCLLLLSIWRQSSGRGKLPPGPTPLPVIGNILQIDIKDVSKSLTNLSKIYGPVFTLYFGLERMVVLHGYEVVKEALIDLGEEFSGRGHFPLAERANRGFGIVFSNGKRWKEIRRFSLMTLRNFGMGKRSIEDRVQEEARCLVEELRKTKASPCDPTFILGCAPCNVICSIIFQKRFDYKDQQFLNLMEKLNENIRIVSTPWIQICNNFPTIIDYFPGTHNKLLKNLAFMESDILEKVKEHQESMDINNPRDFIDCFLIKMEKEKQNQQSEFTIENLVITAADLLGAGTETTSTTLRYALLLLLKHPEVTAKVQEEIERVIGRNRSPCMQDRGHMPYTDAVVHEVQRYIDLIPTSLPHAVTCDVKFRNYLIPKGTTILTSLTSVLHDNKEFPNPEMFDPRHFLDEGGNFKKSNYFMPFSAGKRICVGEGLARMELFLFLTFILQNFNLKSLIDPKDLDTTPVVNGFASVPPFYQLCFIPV
T4 sequence (P10635 whole entry): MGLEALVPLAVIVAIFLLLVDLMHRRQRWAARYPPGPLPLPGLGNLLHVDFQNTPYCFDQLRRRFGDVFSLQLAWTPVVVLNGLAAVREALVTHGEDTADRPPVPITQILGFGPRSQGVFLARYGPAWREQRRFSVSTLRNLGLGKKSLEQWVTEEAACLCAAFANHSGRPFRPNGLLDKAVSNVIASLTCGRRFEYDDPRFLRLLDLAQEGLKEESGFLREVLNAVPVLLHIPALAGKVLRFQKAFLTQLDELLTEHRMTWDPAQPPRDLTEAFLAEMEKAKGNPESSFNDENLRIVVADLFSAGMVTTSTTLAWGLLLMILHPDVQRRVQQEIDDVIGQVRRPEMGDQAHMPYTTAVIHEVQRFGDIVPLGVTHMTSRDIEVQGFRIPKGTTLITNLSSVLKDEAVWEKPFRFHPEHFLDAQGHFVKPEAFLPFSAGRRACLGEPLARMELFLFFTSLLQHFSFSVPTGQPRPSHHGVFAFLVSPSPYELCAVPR

Turning to `CC(C)(C)OC(=O)N1CCCC1c1ccccc1-c1cncn1C1CC1` (stereo not drawn) [Compound 37, tert-butyl 2-(2-(1-cyclopropyl-1H-imidazol-5-yl)phenyl) pyrrolidine-1-carboxylate], the IC50 is more than 10000 nM in test [1]; more than 10000 nM in test [2]; 5810 nM in test [3]; more than 10000 nM in test [4]; 17.8 nM in test [5]; 35.2 nM in test [6].

Take `CN1CCN(c2ccc(S(=O)(=O)N3CCc4c(cccc4-c4cncn4CCc4ccc(F)cc4)C3)cn2)CC1` [Compound 59, 5-(1-(4-fluorophenethyl)-1H-imidazol-5-yl)-2-((6-(4-methylpiperazin-1-yl)pyridin-3-yl)sulfonyl)-1,2,3,4-tetrahydroisoquinoline]: the IC50 in test [1] is more than 10000 nM; in test [2], 4530 nM; in test [3], 5610 nM; in test [4] it was 1980 nM; in test [5] it was 4 nM; in test [6], 1.5 nM.

`O=S(=O)(c1ccc(N2CCC(O)CC2)nc1)N1CCCC1c1ccccc1-c1cncn1CCc1ccc(F)cc1` (single isomer, unassigned) [Compound 33, (R or S)-1-(5-((2-(2-(1-(4-fluorophenethyl)-1H-imidazol-5-yl)phenyl)pyrrolidin-1-yl)sulfonyl)pyridin-2-yl) piperidin-4-ol]: the IC50 in test [1] is more than 10000 nM; in test [2], 2890 nM; in test [3], more than 10000 nM; in test [4], 6500 nM; in test [5], 22.5 nM; in test [6] it was 12.6 nM.

Turning to `CC(C)NC(=O)N1CCCC1c1ccccc1-c1cncn1CCc1ccc(F)cc1` (single isomer, unassigned) [Compound 46b, (R or S)-2-(2-(1-(4-fluorophenethyl)-1H-imidazol-5-yl)phenyl)-N-isopropyl-pyrrolidine-1-carboxamide], the IC50 in test [1] is more than 10000 nM; in test [2], more than 10000 nM; in test [3], more than 10000 nM; in test [4], more than 10000 nM; in test [5], 6.1 nM; in test [6], 6.2 nM.

For the compound `CC(=O)Nc1ncc(S(=O)(=O)NCc2ccc(-c3cncn3CCc3ccc(F)cc3)cc2)s1` [Compound 12, N-(5-(N-(4-(1-(4-fluorophenethyl)-1H-imidazol-5-yl)benzyl)sulfamoyl)thiazol-2-yl)acetamide], the 50% inhibitory concentration (IC50) came out at 2400 nM in test [1]; 49 nM in test [2]; 300 nM in test [3]; 675 nM in test [4]; 8.7 nM in test [5]; 5 nM in test [6].

For the compound `COc1ccc(OC)c(S(=O)(=O)N2CCCC2c2cccc(-c3cncn3CCc3ccc(F)cc3)c2)c1` (single isomer, unassigned) [Compound 53b, (R or S)-5-(3-(1-((2,5-Dimethoxy-phenyl)sulfonyl)pyrrolidin-2-yl)phenyl)-1-(4-fluorophenethyl)-1H-imidazole], the IC50 was determined as 1470 nM in test [1]; 216 nM in test [2]; 149 nM in test [3]; 2330 nM in test [4]; 5.47 nM in test [5]; 2.1 nM in test [6].

For the compound `O=S(=O)(c1cnc(Cl)c(Br)c1)N1CCCC1c1cccc(-c2cncn2CCc2ccc(F)cc2)c1` (stereo not drawn) [Compound 54, 3-Bromo-2-chloro-5-((2-(3-(1-(4-fluorophenethyl)-1H-imidazol-5-yl)phenyl)pyrrolidin-1-yl)sulfonyl) pyridine], the IC50 in test [1] was determined as 1240 nM; in test [2], 422 nM; in test [3] it was 109 nM; in test [4], 1150 nM; in test [5], 13.9 nM; in test [6] it was 3.2 nM.

Regarding `O=C(c1cccnc1)N1CCCC1c1ccccc1-c1cncn1CCc1ccc(F)cc1` (single isomer, unassigned) [Compound 42b, (R or S)-(2-(2-(1-(4-fluorophenethyl)-1H-imidazol-5-yl)phenyl)pyrrolidin-1-yl) (pyridin-3-yl) methanone], the IC50 is more than 10000 nM in test [1]; more than 10000 nM in test [2]; more than 10000 nM in test [3]; more than 10000 nM in test [4]; 13.1 nM in test [5]; 9.3 nM in test [6].
